Measurements: patent publication US11123335B2, “Method for preventing lung diseases in smokers and non-smokers using antihypertensive drug” (SEOUL NATIONAL UNIVERSITY R & DB FOUNDATION, priority 2015, dated 2021)
Like-named read-outs stand apart in the source and are kept apart here.

Experiments:
IGF-1R [1] = experiment: NE-mediated IGF-1R activation in lung epithelial cells; assay type: cell-based, human; conditions: NE-treated lung epithelial cells
Protocol: (§1) Cells were washed twice with ice-cold PBS, and then lysed with a modified RIPA buffer [50 mM Tris-HCl (pH 7.4), 150 mM NaCl, 1 mM EDTA, 0.25% sodium deoxycholate, 1% Triton X-100, a protease inhibitor cocktail, 100 mM NaF, 1 mM Na3VO4]. Lysates were centrifuged at 13,000 rpm for 15 to 20 minutes to harvest supernatants, and then the collected proteins were quantified using the BCA method. Equivalent amounts of the proteins were subjected to electrophoresis using 8-15% SDS-PAGE, and then transferred to a PVDF membrane. The membrane was washed with TBST (0.01% Tween-20-containing Tris-buffered saline), and blocked in a blocking buffer (diluted in TBST to contain 5% skim milk) at room temperature for 1 hour. The membrane was incubated with primary antibodies diluted in 3% BSA-containing TBST at 4° C. for 12 hours, and washed with TBST for over 1 hour. The membrane was incubated with secondary antibodies diluted in TBST containing 3% skim milk at room temperature for 1 to 2 hours, and washed with TBST for over 1 hour. The membrane was reacted in an ECL solution, and band visualization was carried out by exposure to an X-ray film.

IGF-1R [2] = experiment: IGF-1R phosphorylation on change of intracellular Ca2+ (Western blot); assay type: cell-based, human; conditions: HBE/p53i cells
Protocol: as §1

IGF2 [3] = experiment: IGF2 secretion in GFP-IGF2-overexpressing BEAS-2B cells; assay type: cell-based, human
IGF2 [4] = experiment: NE-mediated IGF2 secretion in lung epithelial cells; assay type: cell-based, human; conditions: NE-treated lung epithelial cells
Protocol: ELISA for IGF1, IGF2 and NE were performed using commercially available ELISA kits (R&D Systems, DSL or Abnova) according to the manufacturer's instruction.

IGF-1R [5] = experiment: NNK-induced IGF-1R activation in lung epithelial / lung cancer cells (Western blot); assay type: cell-based, human; conditions: for NNK-mediated IGF-1R activation: NNK-treated BEAS-2B cells
Protocol: as §1

IGF-1R [6] = experiment: NNK-induced IGF-1R phosphorylation in IGF-1R or IR-overexpressing fibroblasts (immunoprecipitation); assay type: cell-based; conditions: NNK 10 μM, time-dependent
Protocol: Proteins isolated from cells were incubated with an antibody and protein A/G agarose to isolate a protein binding to the corresponding antibody. The presence of other proteins capable of interacting with a specific protein was determined by Western blot analysis.
as §1

angiotensinogen (AGT) = experiment: AGT expression or secretion in lung epithelial cells; assay type: cell-based, human
Protocol: as §1

IGF2 [7] = experiment: IGF1 and IGF2 generation in lung epithelial cells (RT-PCR); assay type: cell-based, human; conditions: NNK 1 or 10 μM
Protocol: RNA was isolated from lung epithelial cells by the following method. By adding TRIzol Reagent, the cells were homogenized, treated with chloroform and then centrifuged at 13,000 rpm for 20 minutes. After collection of supernatants, equivalent amounts of isopropanol were added, and then the resulting mixture was centrifuged at 13,000 rpm for 20 minutes to precipitate RNA. The precipitated RNA was washed with 75% ethanol, dried and then dissolved in nuclease-free water. The absorbance at 260 nm was measured, and then the RNA was quantified. RNA having a ratio of A260/A280 nm of 1.8 to 2.0 was used in the experiments. All of the experiments were carried out under RNase-free conditions.
cDNA was synthesized using the PrimeScript™ 1st strand cDNA Synthesis Kit by reacting 2 μg of total RNA with Oligo dT primer (50 μM), a dNTP mixture, and RNase-free dH2O at 65° C. for 5 minutes, reacting a Template RNA primer mixture with 5× PrimeScript Buffer, an RNase inhibitor, PrimeScript RTase, and RNase-free dH2O at 42° C. for 1 hour, and performing heating at 95° C. for 5 minutes to stop the reaction.
After a reaction solution was adjusted to a final volume of 20 μl by adding 2 μl cDNA, 4 μM primer sets, 10 μl EconoTaq® polymerase, and distilled water, polymerase chain reaction (PCR) was carried out using a PCR instrument. […]

intracellular Ca^2+ = experiment: Intracellular Ca2+ production (Fluo-4 AM); assay type: cell-based, human; conditions: NNK treatment
Protocol: Lung epithelial cells were placed on coverslips, treated with an antihypertensive drug or a Ca^2+ chelator, treated with Ca^2+ indicator Fluo-4 AM at 37° C. for 15 minutes, and then treated with NE for 5 minutes. The cells were washed with PBS three times. The slides were mounted with a mounting medium, and images were captured using a Nuance multispectral imaging system (PerkinElmer).
For real-time monitoring of a Ca^2+ change in cells by NNK, the cells were seeded into 96-well cell carrier microplates (PerkinElmer), treated with an antihypertensive drug, treated with Fluo-4 AM at 37° C. for 15 minutes, and then treated with NNK. Fluorescence changes were monitored using an Operetta high content screening system, and result analysis was performed using Harmony software (PerkinElmer).

IGF-1R [8] = experiment: IGF-1R activation in lung tissue of NNK-treated mice; assay type: in vivo, mouse; conditions: A/J mice, NNK 3 μmol
Protocol: as §1

lung epithelial cells [9] = experiment: NNK-induced viability, colony formation and foci formation of lung epithelial cells; assay type: cell-based, human
Protocol: (§2) Cells (2-3×10^3 cells) were seeded into 96-well plates, treated with a test drug diluted with a medium, and then incubated for 3 days. After incubation, the cells were treated with an MTT solution to have a final concentration of 200-500 μg/ml and incubated for 2 to 4 hours. After discarding the medium, produced formazan was dissolved in DMSO, and then the absorbance at 570 nm was measured. Alternatively, cells were seeded into 12- or 24-well plates, collected after a predetermined time after treatment with a test drug, and then counted using a hemocytometer. 100 to 300 cells were seeded into 6- or 12-well plates and then treated with NNK or NNK and a test drug for 2 to 3 weeks. After 2 to 3 weeks, Colony formation was observed and the colonies were counted after stained staining with crystal violet. Before the experiment, low-melting agar (final concentration of agar: 1%) was diluted with a medium, and then 1 ml of the resulting solution was added and solidified in each 24-well plate, resulting in bottom agar. 2,000 to 5,000 cells were mixed with the low melting agar (final concentration of agar: 0.35-0.4%), 500 μl of the resulting mixture was added onto each bottom agar. After solidification of the agar, the cells were treated with NNK or a test drug, which was diluted with a medium. After 2 to 4 weeks after treatment, colonies were stained with an MTT solution, observed, and then counted. Lung epithelial cells at 90 to 95% confluency were treated with a carcinogen diluted with a growth factor-free medium, or a carcinogen and a test drug. After 2 to 3 weeks, foci formation was observed.

A/J mice = experiment: NNK lung carcinogenesis animal model; assay type: in vivo, mouse; conditions: NNK 3 μmol oral twice a week, test drug oral 6 times a week, 20 weeks
Protocol: NNK (3 μmol) was orally administered to A/J mice twice a week, and a test drug was orally administered thereto 6 times a week for a total of 20 weeks. Afterward, the mice were sacrificed, lungs were extracted from the mice, and the produced tumors were counted. Lung paraffin blocks were prepared, four or more tissue sections were prepared at regular intervals, and then stained by H&E staining as described below. Numbers and sizes of the tumors were measured to calculate volumes of the tumors. Paraffin blocks were sliced to have a thickness of 4 μm, placed onto silane-coated slides, and then dried. The dried slide glasses were deparaffinized overnight in a 65° C. dry oven. Afterward, the slide glasses were dipped in xylene for 5 minutes twice. After deparaffinization, the slide glasses were sequentially hydrated with 100%, 95%, 70%, and 50% ethanol, stained with a Harris hematoxylin solution for 1.5 minutes, dipped in a 1% HCl alcohol solution and ammonia, and then counterstained with an eosin solution for 30 seconds. Afterward, the resulting tissue sections were sequentially dehydrated using 95% and 100% ethanol, transparentized with xylene, and then mounted. Images were captured using a microscope.

lung epithelial cells [10] = experiment: Transformation of lung epithelial cells by stress hormones; assay type: cell-based, human; conditions: treatment with the stress hormone alone
Protocol: as §2

lung epithelial cells [11] = experiment: NE-induced viability and colony formation of lung epithelial cells; assay type: cell-based, human; conditions: NE-treated lung epithelial cells
Protocol: as §2, with “100 to 300 cells were seeded into 6- or 12-well plates and then treated with NNK or NNK and a test drug for 2 to 3 weeks.” left out, “counted.” for “counted. Lung epithelial cells at 90 to 95% confluency were treated with a carcinogen diluted with a growth factor-free medium, or a carcinogen and a test drug. After 2 to 3 weeks, foci formation was observed.”

IGF-1R [12] = experiment: Angiotensin-induced activation of IGF-1R signaling in BEAS-2B; assay type: cell-based, human; conditions: angiotensin stimulation
Protocol: as §1

For `CC(=O)OCOC(=O)CN(CC(=O)OCOC(C)=O)c1ccccc1OCCOc1ccccc1N(CC(=O)OCOC(C)=O)CC(=O)OCOC(C)=O` [BAPTA-AM, 1,2-bis(2-aminophenoxy)ethane-N,N,N′,N′-tetraacetic acid tetrakis(acetoxymethyl ester)], the “NE-mediated IGF-1R activation” value (IGF-1R [1]) was “inhibited”, the IGF-1R phosphorylation (IGF-1R [2]) was “inhibited” and the “NNK-increased IGF2 secretion” value (IGF2 [3]; GFP-IGF2-overexpressing BEAS-2B, with NNK) was “inhibited”. The “NE-mediated IGF2 secretion” value (IGF2 [4]) was “inhibited”.
With `O=C(O)CN(CCOCCOCCN(CC(=O)O)CC(=O)O)CC(=O)O` [EGTA, ethylene glycol tetraacetic acid] the “NE-mediated IGF-1R activation” value (IGF-1R [1]) was “inhibited”, the IGF-1R phosphorylation (IGF-1R [2]) was “inhibited” and the “NNK-increased IGF2 secretion” value (IGF2 [3]) was “inhibited”. The “NE-mediated IGF2 secretion” value (IGF2 [4]) was “inhibited”.
For `CN(CCCC(=O)c1cccnc1)N=O` [NNK, 4-(methylnitrosamino)-1-(3-pyridyl)-1-butanone], the “activation of IGF-1R and its downstream signaling mediators Akt, mTOR, ERK” value (IGF-1R [5]; NHBE, SAEC, HBE/p53i, HB56B, BEAS-2B, increasing NNK time or concentration) was “increased”, the “IGF-1R activation in lung cancer cells” value (IGF-1R [5]; various lung cancer cells with different genotypes, NNK 10 μM) was “activated” and the “specificity of increase in IGF-1R phosphorylation (IGF-1R vs IR)” value (IGF-1R [6]) was “specifically shown for IGF-1R, not for IR”. For the same compound, the AGT promoter activation (angiotensinogen (AGT); NNK treatment) was “activated”, the “AGT expression and secretion” value (angiotensinogen (AGT); increase in NNK treatment time and concentration) was “increased” and the AGT expression (angiotensinogen (AGT); lung epithelial cells treated with NNK for 120 days) was “increased”. For the same compound, the IGF2 secretion (IGF2 [3]; GFP-IGF2-overexpressing BEAS-2B, NNK treatment) was “increased”, the IGF2 generation (IGF2 [7]) was “increased” and the “intracellular Ca^2+” value (intracellular Ca^2+) was “increased”. For the same compound, the “activation of IGF-1R and its downstream signaling IRS in lung tissue” value (IGF-1R [8]) was “increased”.
With `C[C@H](CS)C(=O)N1CCC[C@H]1C(=O)O` [captopril] the “NNK-mediated IGF-1R activation” value (IGF-1R [5]) was “inhibited”, the “NNK-induced promotion of cell viability” value (lung epithelial cells [9]) was “suppressed” and the “NNK-induced promotion of colony formation” value (lung epithelial cells [9]) was “suppressed”. For the same compound, the “NNK-induced promotion of foci formation” value (lung epithelial cells [9]) was “suppressed” and the NNK-induced tumorigenesis (A/J mice) was “significantly suppressed”.
For `C[C@]12CCC(=O)C=C1CC[C@@H]1[C@@H]2[C@@H](O)C[C@@]2(C)[C@H]1CC[C@]2(O)C(=O)CO` [cortisol], the “transformation of lung epithelial cells (viability, colony formation, foci formation)” value (lung epithelial cells [10]) was “not by cortisol”.
For `CNC[C@H](O)c1ccc(O)c(O)c1` [epinephrine], the “transformation of lung epithelial cells (viability, colony formation, foci formation)” value (lung epithelial cells [10]) was “induced”.
For `C[C@H](CCC(=O)O)C[C@H](C)C[C@H](C)C(=O)/C=C(\O)[C@H](C)C[C@H](C)C/C=C/[C@@H](C)[C@@H](O)[C@@H](C)[C@@H](O)C[C@@H]1CC[C@@](C)([C@H]2CC[C@@](C)([C@@H](C)O)O2)O1` [ionomycin], the IGF-1R phosphorylation (IGF-1R [2]) was “increased”.
With `C[C@]1(O)C[C@@H](c2nc(-c3ccc4ccc(-c5ccccc5)nc4c3)c3c(N)nccn32)C1` [linsitinib] the “NE-induced increase in colony formation of lung epithelial cells” value (lung epithelial cells [11]) was “significantly suppressed” and the “NE-induced increase in viability of lung epithelial cells” value (lung epithelial cells [11]) was “significantly suppressed”.
`CCCCc1nc(Cl)c(CO)n1Cc1ccc(-c2ccccc2-c2nn[nH]n2)cc1` [losartan] was tested, and the “NNK-mediated IGF-1R activation” value (IGF-1R [5]) was “inhibited”, the “NNK-induced promotion of cell viability” value (lung epithelial cells [9]) was “suppressed” and the “NNK-induced promotion of colony formation” value (lung epithelial cells [9]) was “suppressed”. For the same compound, the “NNK-induced promotion of foci formation” value (lung epithelial cells [9]) was “suppressed” and the NNK-induced tumorigenesis (A/J mice) was “significantly suppressed”.
`COC(=O)C1=C(C)NC(C)=C(C(=O)OC)C1c1ccccc1[N+](=O)[O-]` [nifedipine] was tested, and the “NE-mediated IGF-1R activation” value (IGF-1R [1]) was “inhibited” and the “NE-mediated IGF2 secretion” value (IGF2 [4]) was “inhibited”.
`C/C=C(/C)C(=O)O[C@H]1C(C)=C2[C@H]([C@@H]1OC(=O)CCCCCCC)[C@@](C)(OC(C)=O)C[C@H](OC(=O)CCC)[C@@]1(O)[C@H]2OC(=O)[C@@]1(C)O` [thapsigargin] was tested, and the IGF-1R phosphorylation (IGF-1R [2]) was “increased”.
In the case of “angiotensin (DRVYIHPF; Angiotensin-2; UniProt P01019 25-32, looked up) [angiotensin used to stimulate BEAS-2B lung epithelial cells]”, the “activation of IGF-1R and downstream signaling mediators Akt and ERK” value (IGF-1R [12]) is reported as “concentration- and time-dependently activated”.
